ChEMBL document CHEMBL1155212, “Discovery and structure-activity relationships of a novel class of quinazoline glucokinase activators” (Bioorg Med Chem Lett, 2009)

How the values were obtained:
[1] = physchem; details: buffer, pH 7.4
[2] = Oral bioavailability in Sprague-Dawley rat at 3 mg/kg; assay type: ADME, organism-based; details: in vivo
[3] = Cmax in Sprague-Dawley rat at 3 mg/kg; assay type: ADME, organism-based; parameters: dose 3 mg/kg; details: in vivo
[4] = Plasma clearance in Sprague-Dawley rat at 1 mg/kg, iv; assay type: ADME, organism-based; parameters: dose 1 mg/kg, route intravenous
[5] = Volume of distribution at steady state in Sprague-Dawley rat at 1 mg/kg, iv; assay type: ADME, organism-based; parameters: dose 1 mg/kg, route intravenous; details: in vivo, read-out: Vdss
[6] = AUC (0 to infinity) in Sprague-Dawley rat at 3 mg/kg; assay type: ADME, organism-based; parameters: dose 3 mg/kg, time infinity; details: plasma
[7] = Tmax in Sprague-Dawley rat at 3 mg/kg; assay type: ADME, organism-based; parameters: dose 3 mg/kg; details: in vivo
[8] = Half life in Sprague-Dawley rat at 1 mg/kg, iv; assay type: ADME, organism-based; parameters: dose 1 mg/kg, route intravenous; details: in vivo
[9] = AUC (0 to infinity) in Sprague-Dawley rat at 1 mg/kg, iv; assay type: ADME, organism-based; parameters: time infinity, dose 1 mg/kg, route intravenous; details: plasma

Structure (SMILES)	logD [1]	further results
Cn1ccc(Nc2ncnc3ccc(Oc4c(Cl)cccc4S(C)(=O)=O)cc23)n1	2.3	
Cc1cccc(C#N)c1Oc1ccc2ncnc(Nc3ccn(C)n3)c2c1	3.4	
Cn1ccc(Nc2ncnc3ccc(Oc4ncccc4CO)cc23)n1	1.7	
Cc1cccc(S(C)(=O)=O)c1Oc1ccc2ncnc(Nc3ccn(C)n3)c2c1	2.1	
Cn1ccc(Nc2ncnc3ccc(Oc4ccccc4S(C)(=O)=O)cc23)n1	1.9	
CS(=O)(=O)c1cccc(F)c1Oc1ccc2ncnc(Nc3cccnn3)c2c1	2	
CS(=O)(=O)c1cccc(F)c1Oc1ccc2ncnc(Nc3cnccn3)c2c1	2.2	
Cn1ccc(Nc2ncnc3ccc(Oc4c(F)cccc4F)cc23)n1	3.7	
Cn1ccc(Nc2ncnc3ccc(Oc4ncccc4Br)cc23)n1	3.4	
Cc1csc(Nc2ncnc3ccc(Oc4ccccc4S(C)(=O)=O)cc23)n1	4.3	
Cc1csc(Nc2ncnc3ccc(Oc4ccc(F)cc4)cc23)n1	5.8	
Cc1csc(Nc2ncnc3ccc(Oc4ccccc4F)cc23)n1	5.8	
Cc1nsc(Nc2ncnc3ccc(Oc4c(F)cccc4S(C)(=O)=O)cc23)n1	3.1	
Cc1cnc(Nc2ncnc3ccc(Oc4c(F)cccc4S(C)(=O)=O)cc23)cn1	2.5	
Cn1ccc(Nc2ncnc3ccc(Oc4ccncn4)cc23)n1	1.7	
Cn1ccc(Nc2ncnc3ccc(Oc4ccc(F)cc4F)cc23)n1	3.6	
CS(=O)(=O)c1cccc(F)c1Oc1ccc2ncnc(Nc3cc[nH]n3)c2c1	1.8	
Cn1ccc(Nc2ncnc3ccc(Oc4ncccc4Cl)cc23)n1	2.9	
CN(C)C(=O)c1cccnc1Oc1ccc2ncnc(Nc3ccn(C)n3)c2c1	1.4	
Cn1ccc(Nc2ncnc3ccc(Oc4c(F)cccc4S(C)(=O)=O)cc23)n1	1.9	bioavailability [2]: 71%; Cmax [3]: 5.8 µM; clearance [4]: 6.8 mL/min/kg; Vd [5]: 0.5 L/kg; AUC(0-inf) [6]: 13.3 µM·h; Tmax [7]: 54 min; half-life [8]: 78 min; AUC(0-inf) [9]: 6.3 µM·h
CCn1ccc(Nc2ncnc3ccc(Oc4c(F)cccc4S(C)(=O)=O)cc23)n1	2.4	
Cn1ccc(Nc2ncnc3ccc(Oc4ncccc4F)cc23)n1	2.4	
Cn1ccc(Nc2ncnc3ccc(Oc4ccccn4)cc23)n1	2.1	
CS(=O)(=O)c1cccc(F)c1Oc1ccc2ncnc(Nc3ccccn3)c2c1	3.6	
